Source: patent US20250304537A1 (Repare Therapeutics Inc., priority 2022, published 2025)

The compounds below were run on PKMYT1 (CDK1 pThr14) in FUOV1 cells (assay: PKMYT1 cell-based activity assay, CDK1 pThr14 AlphaLISA in FUOV1 cells). Details: 2 h, 2 h compound incubation, read-out: FUOV-1 CDK1 pThr14 IC50.
How it was run: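 IC50 was derived from AlphaLISA signal (excitation 680 nm, emission 615 nm) for phospho-Thr14 CDK1 in lysates. The detection antibodies were rabbit anti-pThr14 and mouse anti-total CDK1, each at 5 nM. FUOV1 ovarian cells were exposed to compound for 2 hours before lysis.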

IC50 | Structure (SMILES)
130 nM | Cc1ccc2[nH]ncc2c1-c1nc(-c2cccnc2NC[C@@H]2CCCOC2)nc(C(N)=O)c1N [Compound 651]
871 nM | Cc1ccc2[nH]ncc2c1-c1nc(-c2cc(F)ccc2Nc2ncc(Cl)s2)nc(C(N)=O)c1N [Compound 510]
569 nM | Cc1cccc(Nc2ncccc2-c2nc(C(N)=O)c(N)c(-c3c(C)ccc4[nH]ncc34)n2)c1 [Compound 634]
9 nM | Cc1ccc2[nH]ncc2c1-c1nc(-c2ccc(C#N)cc2Nc2ncccc2F)nc(C(N)=O)c1N [Compound 739]
> 10000 nM | COc1ccccc1-c1nc(C(N)=O)c(N)c(-c2c(C)ccc3[nH]ncc23)n1 [Compound 777]
127 nM | Cc1ccc2[nH]ncc2c1-c1nc(-c2ccc(F)cc2Nc2ccnc(C(F)(F)F)c2)nc(C(N)=O)c1N [Compound 585]
236 nM | Cc1ccc2[nH]ncc2c1-c1nc(-c2cc(F)ccc2Nc2ncc(C#N)s2)nc(C(N)=O)c1N [Compound 506]
13 nM | Cc1ccc2[nH]ncc2c1-c1nc(-c2ccc(F)cc2Nc2nncs2)nc(C(N)=O)c1N [Compound 579]
2 nM | Cc1ccc2[nH]ncc2c1-c1nc(-c2cccnc2Nc2nc(F)ccc2F)nc(C(N)=O)c1N [Compound 660]
23 nM | Cc1ccc2[nH]ncc2c1-c1nc(-c2cc(F)c(F)cc2NCC2(C)COC2)nc(C(N)=O)c1N [Compound 503]
41 nM | Cc1ccc2[nH]ncc2c1-c1nc(-c2ccc(F)cc2Nc2cncc(F)c2)nc(C(N)=O)c1N [Compound 665]
871 nM | Cc1ccc2[nH]ncc2c1-c1nc(-c2cc(F)c(F)cc2NC2CC(C)(C)NC(C)(C)C2)nc(C(N)=O)c1N [Compound 502]
423 nM | Cc1ccc2[nH]ncc2c1-c1nc(-c2ccc(F)cc2Nc2cncnc2C(=N)N)nc(C(N)=O)c1N [Compound 694]
61 nM | Cc1ccc(-c2nc(C(N)=O)c(N)c(-c3c(C)ccc4[nH]ncc34)n2)c(Nc2ncccn2)c1 [Compound 653]
111 nM | COc1ccnc(Nc2cc(F)ccc2-c2nc(C(N)=O)c(N)c(-c3c(C)ccc4[nH]ncc34)n2)n1 [Compound 570]
198 nM | Cc1ccc2[nH]ncc2c1-c1nc(-c2ccncc2NC(=O)OC(C)(C)C)nc(C(N)=O)c1N [Compound 495]
19 nM | CCc1cccnc1Nc1ncccc1-c1nc(C(N)=O)c(N)c(-c2c(C)ccc3[nH]ncc23)n1 [Compound 730]
75 nM | Cc1cc(Nc2cc(F)ccc2-c2nc(C(N)=O)c(N)c(-c3c(C)ccc4[nH]ncc34)n2)cc(C#N)n1 [Compound 586]
139 nM | Cc1ccc2[nH]ncc2c1-c1nc(-c2cc(F)c(F)cc2NCC2(C#N)CC2)nc(C(N)=O)c1N [Compound 517]
23 nM | Cc1ccc2[nH]ncc2c1-c1nc(-c2ccc(C#N)cc2Nc2cccnn2)nc(C(N)=O)c1N [Compound 765]

IC50 | Structure (SMILES)
8 nM | Cc1ccc2[nH]ncc2c1-c1nc(-c2ccc(F)cc2Nc2ccncc2C#N)nc(C(N)=O)c1N [Compound 590]
9 nM | Cc1ccc(O)c(C)c1-c1nc(-c2cc(F)cnc2NCC(F)F)nc(C(N)=O)c1N [Compound 700, 5-amino-2-(2-((2,2-difluoroethyl)amino)-5-fluoropyridin-3-yl)-6-(3-hydroxy-2,6-dimethylphenyl)pyrimidine-4-carboxamide]
146 nM | Cc1ccc2[nH]ncc2c1-c1nc(-c2cc(F)c(F)cc2NCC(N)CO)nc(C(N)=O)c1N (stereo not drawn) [Compound 501]
3 nM | Cc1ccc(-c2nc(C(N)=O)c(N)c(-c3c(C)ccc4[nH]ncc34)n2)c(Nc2ncccc2C)n1 [Compound 687]
17 nM | Cc1cccnc1Nc1cc(C#N)ccc1-c1nc(C(N)=O)c(N)c(-c2c(C)ccc3[nH]ncc23)n1 [Compound 754]
707 nM | Cc1ccc2[nH]ncc2c1-c1nc(-c2cccnc2Nc2cccc(Cl)c2)nc(C(N)=O)c1N [Compound 638]
77 nM | Cc1ccc2[nH]ncc2c1-c1nc(-c2ccc(Cl)cc2Nc2ncccn2)nc(C(N)=O)c1N [Compound 654]
7 nM | Cc1ccc2[nH]ncc2c1-c1nc(-c2cccnc2N[C@H]2CCOC2)nc(C(N)=O)c1N [Compound 550]
16 nM | Cc1ccc2[nH]ncc2c1-c1nc(-c2ccc(F)cc2Nc2ccncn2)nc(C(N)=O)c1N [Compound 513]
5 nM | Cc1ccc(Cl)nc1Nc1ncccc1-c1nc(C(N)=O)c(N)c(-c2c(C)ccc3[nH]ncc23)n1 [Compound 742]
68 nM | Cc1ccc2[nH]ncc2c1-c1nc(-c2cc(F)c(F)cc2NC(=O)C(C)(C)C)nc(C(N)=O)c1N [Compound 487]
266 nM | Cc1ccc2[nH]ncc2c1-c1cc2c(oc3ccc(N4CCOCC4)nc32)c(C(N)=O)c1N [Compound 652]
622 nM | COCC(COC)Nc1cc(F)c(F)cc1-c1nc(C(N)=O)c(N)c(-c2c(C)ccc3[nH]ncc23)n1 [Compound 508]
4 nM | Cc1ccc2[nH]ncc2c1-c1nc(-c2ccc(F)cc2Nc2ncncc2F)nc(C(N)=O)c1N [Compound 526]
17 nM | Cc1ccc2[nH]ncc2c1-c1nc(-c2cc(F)cnc2N[C@H]2C[C@@H](O)C2)nc(C(N)=O)c1N [Compound 704]
18 nM | Cc1ccc2[nH]ncc2c1-c1nc(-c2cccnc2NCC(F)(F)F)nc(C(N)=O)c1N [Compound 518, 5-amino-6-(5-methyl-1H-indazol-4-yl)-2-(2-((2,2,2-trifluoroethyl)amino)pyridin-3-yl)pyrimidine-4-carboxamide]
1340 nM | Cc1ccc2[nH]ncc2c1-c1nc(-c2cc(F)ccc2NS(=O)(=O)C2CC(F)(F)C2)nc(C(N)=O)c1N [Compound 514]
> 10000 nM | Cc1ccc2[nH]ncc2c1-c1nc(-c2cc(F)cnc2NC2CC3(COC3)C2)nc(C(N)=O)c1N [Compound 713]
36 nM | Cc1ccc2[nH]ncc2c1-c1nc(-c2cc(F)ccc2NC(=O)C2(C)CCOCC2)nc(C(N)=O)c1N [Compound 505]
12 nM | Cc1ccc2[nH]ncc2c1-c1nc(-c2cc(F)cnc2N[C@@H]2CCOC2)nc(C(N)=O)c1N [Compound 685]

Same assay, conditions: 2 h, 2 h incubation, read-out: FUOV-1 CDK1 pThr14 IC50

IC50 | Structure (SMILES)
92 nM | COC(COc1nccc(-c2cc(-c3c(C)ccc4[nH]ncc34)c(N)c(C(N)=O)n2)n1)c1ccccc1 (stereo not drawn) [Compound 238]
1620 nM | Cc1ccc2[nH]ncc2c1-c1nc(-c2cccnc2Nc2nc(F)ccc2F)nc(C(N)=O)c1Cl [Compound 314, 5-chloro-2-[2-[(3,6-difluoro-2-pyridyl)amino]-3-pyridyl]-6-(5-methyl-1H-indazol-4-yl)pyrimidine-4-carboxamide]
303 nM | Cc1ccc2[nH]ncc2c1-c1cc(-c2ccnc(OCC3(C#N)CC3)n2)nc(C(N)=O)c1N [Compound 324]

Same assay, conditions: 2 h, 2 hours with compound, read-out: FUOV-1 CDK1 pThr14 IC50

IC50 | Structure (SMILES)
926 nM | Cc1ccc2[nH]ncc2c1-c1nc(-c2cn(C)nc2Nc2ccccn2)nc(C(N)=O)c1N [Compound 916, 5-amino-6-(5-methyl-1H-indazol-4-yl)-2-(1-methyl-3-(pyridin-2-ylamino)-1H-pyrazol-4-yl)pyrimidine-4-carboxamide]
23 nM | Cc1ccc2[nH]ncc2c1-c1nc(-c2ccc(F)nc2NC2CS(=O)(=O)C2)nc(C(N)=O)c1N [Compound 819]
40 nM | NC(=O)c1nc(-c2ccc(C(F)F)nc2Nc2ncccc2F)nc(-c2c(F)ccc3[nH]ncc23)c1N [Compound 970]
3 nM | Cc1ccc2[nH]ncc2c1-c1nc(-c2cccnc2Nc2nc(C(F)F)ccc2F)nc(C(N)=O)c1N [Compound 842]
4 nM | N#Cc1cccnc1Nc1cc(F)ccc1-c1nc(C(N)=O)c(N)c(-c2c(F)ccc3[nH]ncc23)n1 [Compound 968]
8 nM | Cc1ccc2[nH]ncc2c1-c1nc(-c2ccc(Cl)nc2Nc2ncccc2C#N)nc(C(N)=O)c1N [Compound 935]
36 nM | Cc1cc(F)c2[nH]ncc2c1-c1nc(-c2ccc(F)nc2Nc2ncccc2C(F)F)nc(C(N)=O)c1N [Compound 878]
160 nM | [2H]C([2H])([2H])c1ccc2[nH]ncc2c1-c1nc(-c2cccnc2NC23CC(C#N)(C2)C3)nc(C(N)=O)c1N [Compound 957, 5-amino-2-[2-[(3-cyano-1-bicyclo[1.1.1]pentanyl)amino]-3-pyridyl]-6-[5-(trideuteriomethyl)-1H-indazol-4-yl]pyrimidine-4-carboxamide]
15 nM | Cc1ccc2[nH]ncc2c1-c1nc(-c2ccc(F)nc2Nc2nccnc2Cl)nc(C(N)=O)c1N [Compound 924]
30 nM | Cc1ccc2[nH]ncc2c1-c1nc(-c2cc(F)cnc2N[C@H]2CC[C@@H](O)CC2)nc(C(N)=O)c1N [Compound 828]
147 nM | Cc1cc(F)c2[nH]ncc2c1-c1nc(-c2cccnc2NCC(F)(F)F)nc(C(N)=O)c1N [Compound 872]
74 nM | Cc1ccc2[nH]ncc2c1-c1nc(-c2ccc(Cl)nc2NC2CCOCC2)nc(C(N)=O)c1N [Compound 803]
121 nM | Cc1ccc2[nH]ncc2c1-c1nc(-c2ccc(F)cc2N[C@H]2C[C@@](C)(O)C2)nc(C(N)=O)c1N [Compound 862]
56 nM | Cc1ccc2[nH]ncc2c1-c1nc(-c2cc(F)cnc2N[C@H](C)C(F)(F)F)nc(C(N)=O)c1N [Compound 889]
7 nM | Cc1ccc2[nH]ncc2c1-c1nc(-c2ccc(F)nc2Nc2ncccc2F)nc(C(N)=O)c1N [Compound 929]
51 nM | Cc1ccc2[nH]ncc2c1-c1nc(-c2ccc(F)cc2N[C@H]2C[C@H](O)C2)nc(C(N)=O)c1N [Compound 906]
34 nM | COc1ccc(F)c(Nc2nc(F)ccc2-c2nc(C(N)=O)c(N)c(-c3c(C)ccc4[nH]ncc34)n2)n1 [Compound 922]
396 nM | NC(=O)c1nc(-c2cccnc2NCC(F)(F)F)nc(-c2c(Cl)c(F)cc3[nH]ncc23)c1N [Compound 942]
37 nM | Cc1ccc(Cl)nc1Nc1nc(F)ccc1-c1nc(C(N)=O)c(N)c(-c2c(C)cc(F)c3[nH]ncc23)n1 [Compound 877]
172 nM | Cc1ccc2[nH]ncc2c1-c1nc(-c2ccc(C#N)cc2N[C@H]2C[C@@](C)(O)C2)nc(C(N)=O)c1N [Compound 822]
